From paper PMC8820820, “Feasibility and safety of targeting mitochondria for cancer therapy – preclinical characterization of gamitrinib, a first-in-class, mitochondriaL-targeted small molecule Hsp90 inhibitor” (Cancer Biology & Therapy, 2022)
pIC50: −log10 of the molar value.

Tests used:
[1] = Toxicokinetics in rats, twice weekly IV for 29 d; format: in vivo, Sprague-Dawley rats
Procedure: Ninety-six male and female Sprague-Dawley rats (6–7 weeks old) were received from Charles River Laboratories (Raleigh, NC) catheterized via a femoral vein prior to arrival. Animals were acclimated in individual stainless-steel cages with access to water and Certified Rodent Diet #2014 C (Envigo RMS) ad libitum for 6 d prior to study initiation. Environmental controls were set to maintain a temperature range of 20 to 26°C, a relative humidity range of 30 to 70%, eight or greater air changes/h, and a 12-h light/dark cycle. Animals were infused with sterile isotonic (0.9%) saline for a minimum of 4 d (0.20 mL/h for males or 0.15 mL/h for females) during the predose phase. At initiation of dosing, animals were 8 to 9 weeks old, and body weights ranged from 283 to 341 g for males and 188 to 238 g for females. Gamitrinib formulated as indicated above was administered by IV infusion on d 4, 8, 11, 15, 18, 22, 25, and 29 of the dosing phase at 1, 10, 25 mg/kg/dose and dose volume of 5 mL/kg. The vehicle control administered with the same schedule contained 2.5% DMSO, 0.125% polysorbate 80, 0.031% lecithin, 1.25% sucrose and 4.375% dextrose. Animals were checked twice daily throughout the duration of the study for mortality, abnormalities, and signs of pain or distress. Detailed observations were conducted for each animal up to two times during the predose phase and for each toxicity animal prior to dosing on d 1, 8, 15, 22, and 29 of the dosing phase and on d 1, 7, and 14 of the recovery phase. Blood samples were collected on d. 1, 4 and 29 of the dosing phase 5 min, 1 h and 24 h post-dose, maintained on chilled cryoracks and centrifuged within 1 h of collection. Tissue samples harvested from each animal were embedded in paraffin, sectioned, and slides were prepared and stained with hematoxylin and eosin.

Kv1.5 = Kv1.5 (Homo sapiens, UniProt P22460); assay: Ion channel screening; format: cell-based; details: 10 µM
Kv1.5, sequence (P22460 whole entry): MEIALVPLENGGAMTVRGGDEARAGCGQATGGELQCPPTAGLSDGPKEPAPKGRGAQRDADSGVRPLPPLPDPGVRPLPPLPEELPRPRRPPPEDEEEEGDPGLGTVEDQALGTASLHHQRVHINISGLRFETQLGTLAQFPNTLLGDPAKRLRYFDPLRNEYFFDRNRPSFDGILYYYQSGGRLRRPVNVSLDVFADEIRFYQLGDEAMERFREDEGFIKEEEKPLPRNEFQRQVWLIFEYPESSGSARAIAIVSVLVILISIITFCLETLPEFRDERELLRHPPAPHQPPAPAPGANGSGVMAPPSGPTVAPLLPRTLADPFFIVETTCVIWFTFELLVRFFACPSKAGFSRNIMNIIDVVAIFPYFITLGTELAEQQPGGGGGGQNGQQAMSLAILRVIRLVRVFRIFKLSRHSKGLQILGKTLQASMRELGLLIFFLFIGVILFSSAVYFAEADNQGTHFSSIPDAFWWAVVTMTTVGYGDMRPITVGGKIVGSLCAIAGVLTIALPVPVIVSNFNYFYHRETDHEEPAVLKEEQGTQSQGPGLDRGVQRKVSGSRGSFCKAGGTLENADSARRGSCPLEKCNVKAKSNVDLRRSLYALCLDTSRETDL
Description: Ion channel screening. […] The parameters measured were the maximum inward current evoked on stepping to -20 mV from the 1st and 26th pulse. Human Kv4.3/KChIP2 currents were evoked from a holding potential of -80 mV by a series of four 500 msec pulses to 0 mV using a 1000 msec interval between pulses. The parameter measured was the amplitude of the outward current 50 msec after the onset of the 4th voltage step to 0 mV. […] Human Kv1.5 currents were evoked by a single pulse from a holding potential of -80 mV to a potential of 0 mV for 4 sec before returning to -80 mV. The parameters measured were the maximum amplitude of outward currents evoked at the beginning of the voltage pulse and at the end of the voltage step from -80 mV to 0 mV. Human KCNQ1/minK currents were evoked by a single pulse delivered from a holding potential of -80 mV to +60 mV for 4 sec before returning to -80 mV. The parameter measured was the maximum outward current evoked on stepping to +60 mV from the holding potential of -80 mV. hERG currents were evoked by a three-pulse protocol where voltage was first stepped to +40 mV for two sec from a holding potential of –80 mV to inactivate hERG channels. […] The parameter measured was the maximum inward current evoked upon stepping to -110 mV from the holding potential of -30 mV. […]

[2] = Stability in human plasma
CYP2C9 = CYP2C9 (Homo sapiens, UniProt P11712); details: microsomes
CYP2C9, sequence (P11712 whole entry): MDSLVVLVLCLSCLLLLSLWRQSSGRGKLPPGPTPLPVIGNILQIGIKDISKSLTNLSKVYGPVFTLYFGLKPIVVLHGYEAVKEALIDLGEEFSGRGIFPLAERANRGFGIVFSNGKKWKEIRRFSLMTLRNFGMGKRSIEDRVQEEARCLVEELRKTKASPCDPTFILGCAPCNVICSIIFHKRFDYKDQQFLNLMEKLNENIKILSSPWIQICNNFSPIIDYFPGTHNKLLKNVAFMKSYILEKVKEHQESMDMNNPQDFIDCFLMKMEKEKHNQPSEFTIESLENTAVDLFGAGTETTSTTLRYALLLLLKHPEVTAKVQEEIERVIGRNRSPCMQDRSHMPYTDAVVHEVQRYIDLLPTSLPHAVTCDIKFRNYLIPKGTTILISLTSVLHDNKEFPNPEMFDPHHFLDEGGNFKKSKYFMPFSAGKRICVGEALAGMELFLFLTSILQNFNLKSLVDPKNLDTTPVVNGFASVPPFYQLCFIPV
Procedure: CYP inhibition in liver microsomes. […] Samples were analyzed for metabolite formation by LC-MS/MS. The results were expressed using the peak area ratio of analyte to internal standard, based on the calibration curves.
Where Range=fitted uninhibited value, s=slope factor, x=inhibitor concentration, y=% control activity.

With COC1C=CC=C(C)C(=O)NC2=CC(=O)C(NCCCCCC[P+](c3ccccc3)(c3ccccc3)c3ccccc3)=C(CC(C)CC(OC)C(O)C(C)C=C(C)C1OC(N)=O)C2=O.F[P-](F)(F)(F)(F)F (stereo not drawn) [Gamitrinib] the drug accumulation ([1]; Cmax and AUC0–24 d 4 vs d 29) was “no drug accumulation after multiple doses”, the “AUC0–24” value ([1]; rat, in vivo, 1 mg/kg) was 174 ng·h/mL and the “AUC0–24” value ([1]; rat, in vivo, 10 mg/kg) was 1300 ng·h/mL. For the same molecule, the CLSS ([1]; rat, in vivo, iv, 25 mg/kg) was 84.83 to 131.33 mL/min/kg, the VSS ([1]; rat, in vivo, iv, 25 mg/kg) was 12.2 to 90.0 L/kg and the “inhibition of Kv1.5 currents” value (Kv1.5) was 6.6 ± 1.3%. For the same molecule, the average recovery [2] was 82.8 ± 3%, the “stability in human plasma” value [2] was 91.4% and the pIC50 (CYP2C9) was 5.96.
